Columns and labels:
kochia [1] = test: Test A preemergence; assay type: in vivo, Kochia scoparia; details: 0 to 100 scale where 0 is no effect and 100 is complete control
How it was run: (§1)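 Visual injury scored 0–100 (100 = complete control) against untreated controls about 10 days after treatment in a greenhouse. Test chemicals, formulated with surfactant in non-phytotoxic solvent, were sprayed on soil preemergence or on 2-10 cm, one- to two-leaf plants postemergence.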

Italian ryegrass = test: Test C postemergence; assay type: in vivo, Lolium multiflorum
How it was run: (§2)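 Visual injury score versus untreated controls, 0 = no effect, 100 = complete control, taken 13 to 15 days after treatment in the greenhouse. Pre-emergence pots held loam/sand; post-emergence plants grew in sphagnum peat/vermiculite mix and were sprayed at the 1- to 4-leaf stage.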

johnsongrass = test: Test C preemergence; assay type: in vivo, Sorghum halepense; details: Sorghum halepense, pre-emergence, preemergence, read-out: Johnsongrass plant response rating
How it was run: as §2

waterhemp = test: Test C preemergence; assay type: in vivo, Amaranthus rudis; details: Amaranthus tuberculatus, pre-emergence, preemergence, read-out: Waterhemp plant response rating
How it was run: as §2

wheat, winter = test: Test C preemergence; assay type: in vivo, Triticum aestivum; details: Triticum aestivum, pre-emergence, preemergence, read-out: Wheat plant response rating
How it was run: as §2

corn = test: Test C postemergence; assay type: in vivo, Zea mays; details: Zea mays, post-emergence
How it was run: as §2

pigweed = test: Test A preemergence; assay type: in vivo, Amaranthus retroflexus; details: Amaranthus retroflexus, pre-emergence, 0 to 100 scale where 0 is no effect and 100 is complete control
How it was run: as §1

blackgrass = test: Test A postemergence; assay type: in vivo, Alopecurus myosuroides; details: 0 to 100 scale where 0 is no effect and 100 is complete control
How it was run: as §1

wheat = test: Test A postemergence; assay type: in vivo, Triticum aestivum; details: Triticum aestivum, post-emergence, 240 h, 0 to 100 scale where 0 is no effect and 100 is complete control
How it was run: as §1

Heteranthera limosa = test: Test B flooded paddy test; assay type: in vivo; details: Heteranthera limosa, Flood, 250 g ai/ha; 0 to 100 scale where 0 is no effect and 100 is complete control; read-out: Plant response rating, Ducksalad
How it was run: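 2-leaf stage plants; pots flooded to 3 cm, compound added to paddy water, depth maintained. Greenhouse 13–15 d. Visual rating vs untreated controls, 0 (no effect) to 100 (complete control); dash = no result.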

giant foxtail = test: Test A postemergence; assay type: in vivo, Setaria faberii; details: Setaria faberi, post-emergence, 240 h, 0 to 100 scale where 0 is no effect and 100 is complete control
How it was run: as §1

kochia [2] = test: Test A postemergence; assay type: in vivo, Kochia scoparia; details: 0 to 100 scale where 0 is no effect and 100 is complete control
How it was run: as §1

galium = test: Test C preemergence; assay type: in vivo, Galium aparine; details: Galium, pre-emergence
How it was run: as §2

[3] = 16 g ai/ha, scale 0 to 100 (0 no effect, 100 complete control)
[4] = 62 g ai/ha, scale 0 (no effect) to 100 (complete control)
[5] = 125 g ai/ha, scale 0 (no effect) to 100 (complete control)

FC(F)c1cn(-c2ccccc2Oc2ncc(Cl)cn2)nn1 [Compound 147, 5-chloro-2-[2-[4-(difluoromethyl)-1H-1,2,3-triazol-1-yl]phenoxy]pyrimidine]
Plant response rating, Kochia (kochia [1]; 125 g ai/ha): 100
Kochia plant response rating (kochia [1]; 500 g ai/ha): 100
Ryegrass, Italian plant response rating (Italian ryegrass; 31 g ai/ha, postemergence, visual rating, scale 0 to 100 (0 no effect, 100 complete control), 13 to 15 days): 0
pest or weed control at 16 g/ha (Italian ryegrass; Lolium multiflorum, post-emergence, 16 g ai/ha, postemergence, 0 is no effect, 100 is complete control, read-out: Plant response rating (0 to 100), Ryegrass, Italian): 0%
pest or weed control at 125 g/ha (Italian ryegrass; Lolium multiflorum, post-emergence, 125 g ai/ha, postemergence, visual rating, scale 0 to 100 (0 no effect, 100 complete control), read-out: Plant response rating, Ryegrass, Italian): 5%
pest or weed control at 62 g/ha (Italian ryegrass; Lolium multiflorum, post-emergence, Postemergence, 62 g ai/ha, scale 0 to 100 (0 no effect, 100 complete control), read-out: Plant response rating, Ryegrass, Italian): 0%
pest or weed control at 16 g/ha (johnsongrass; [3]): 10%
pest or weed control at 62 g/ha (johnsongrass; [4]): 80%
pest or weed control at 125 g/ha (johnsongrass; [5]): 90%
pest or weed control at 16 g/ha (waterhemp; [3]): 100%
pest or weed control at 62 g/ha (waterhemp; [4]): 100%
pest or weed control at 125 g/ha (waterhemp; [5]): 100%
plant injury at 16 g/ha (wheat, winter; [3]): 0%
plant injury at 62 g/ha (wheat, winter; [4]): 0%
plant injury at 125 g/ha (wheat, winter; [5]): 25%
plant injury at 16 g/ha (corn; 16 g ai/ha, postemergence, 0 is no effect, 100 is complete control, read-out: Plant response rating (0 to 100), Corn): 5%
plant injury at 31 g/ha (corn; 31 g ai/ha, postemergence, visual rating, scale 0 to 100 (0 no effect, 100 complete control), 13 to 15 days, read-out: Corn plant response rating): 5%
Corn plant response rating (crop injury, 0 = no effect, 100 = complete kill) at 125 g/ha (corn; 125 g ai/ha, postemergence, visual rating, scale 0 to 100 (0 no effect, 100 complete control)): 10%
Corn plant response rating (crop injury, 0 = no effect, 100 = complete kill) at 62 g/ha (corn; Postemergence, 62 g ai/ha, scale 0 to 100 (0 no effect, 100 complete control)): 5%
pest or weed control at 125 g/ha (pigweed; 125 g ai/ha, read-out: Plant response rating, Pigweed): 100%
pest or weed control at 500 g/ha (pigweed; 240 h, 500 g ai/ha, read-out: Pigweed plant response rating): 100%
Blackgrass plant response rating (blackgrass; 125 g ai/ha): 100
Plant response rating, Blackgrass (blackgrass; 500 g ai/ha): 100
plant injury at 125 g/ha (wheat; 125 g ai/ha, read-out: Wheat plant response rating): 50%
plant injury at 500 g/ha (wheat; 500 g ai/ha, read-out: Plant response rating, Wheat): 80%
pest or weed control at 250 g/ha (Heteranthera limosa): 80%
pest or weed control at 125 g/ha (giant foxtail; 125 g ai/ha, read-out: Foxtail, Giant plant response rating): 90%
pest or weed control at 500 g/ha (giant foxtail; 500 g ai/ha, read-out: Plant response rating, Foxtail, Giant): 90%
Kochia plant response rating (kochia [2]; 125 g ai/ha): 100
Plant response rating, Kochia (kochia [2]; 500 g ai/ha): 100
pest or weed control at 16 g/ha (galium; 16 g ai/ha, preemergence, scale 0 to 100 (0 no effect, 100 complete control), read-out: Galium plant response rating): 90%
pest or weed control at 62 g/ha (galium; 62 g ai/ha, preemergence, scale 0 (no effect) to 100 (complete control), read-out: Galium plant response rating): 98%
pest or weed control at 125 g/ha (galium; 125 g ai/ha, preemergence, scale 0 (no effect) to 100 (complete control), read-out: Galium plant response rating): 98%
pest or weed control at 31 g/ha (galium; Preemergence, 31 g ai/ha, scale 0 to 100, 0 no effect, 100 complete control, read-out: Plant response rating, Galium): 98%
